Source: patent publication US20070032551A1, “Salt of dimethylaminomethyl-phenyl-cyclohexane and crystalline forms thereof” (GRUENENTHAL GMBH, priority 2005, published 2007)

How the values were obtained:
[1] = Bioavailability (general statement)
[2] = Hygroscopicity (general statement); type: physicochemical
[3] = Solubility (general statement)
[4] = Water uptake of fumarate and hydrochloride by DVS (Example E8); type: physicochemical; settings: 25° C.
Protocol: The water uptake is determined by means of dynamic water vapor uptake (dynamic vapor sorption, DVS) with the DVS-1 apparatus from Surface Measurement Systems Ltd. The sample is placed in a platinum crucible on the tip of a microbalance. The sample is then first equilibrated at 50% relative atmospheric humidity and subsequently subjected to a predefined measurement program. The temperature is 25° C. The change in weight of the sample after a stepwise increase in the relative atmospheric humidity by in each case 10% to 90% is determined.

[5] = Damp storage and drying of fumarate and hydrochloride (Example E9); type: physicochemical; settings: for change in the crystalline form (X-ray diffraction diagrams): after damp storage and drying; for DW (dry weight), starting value / WC (Karl Fischer water content), starting value: before the start of the storage
Protocol: Fumarate and hydrochloride according to Example E8 are first stored at 25° C. and 75% and 95% relative atmospheric humidity for 7 days and thereafter at 50° C. in vacuo in a drying cabinet for 7 days. Before the start of the storage, the X-ray diffraction diagrams (XRD), DSC for determination of transition points (Tp) and dry weight (DW) and the Karl Fischer water content (WC) are determined, and the same values are determined after the damp storage and drying. The X-ray diffraction diagrams show no change in the crystalline forms A and D after damp storage and drying. The starting values for the hydrochloride are Tp=116.27° C., DW=6.35% and WC=8.00%. The starting values for the fumarate are Tp=93.11° C. and 175.14° C., DW=0 and WC=0.2%. The results are given in Tables 7 (75% relative atmospheric humidity) and 8 (95% relative atmospheric humidity).

[6] = Storage at room temperature in high and low atmospheric humidity, crystal form by Raman (Examples E1-E3, B1); type: physicochemical; settings: for crystalline form after storage / crystalline form after storage (Raman): room temperature
Protocol: Unless stated otherwise, the crystal forms are determined by comparison of the Raman spectra.
a) 30 mg of the amorphous fumarate prepared according to Example Bi are stored at room temperature and 75% relative atmospheric humidity for 5 days.
b) 30 mg of the amorphous fumarate prepared according to Example B2 are stored at room temperature and 90% relative atmospheric humidity for 3 days.
c) 30 mg of the amorphous fumarate prepared according to Example B2 are stored at room temperature and 53% relative atmospheric humidity for 2 months.
d) 30 mg of the amorphous fumarate prepared according to Example B2 are stored at room temperature and 22% relative atmospheric humidity for 2 months. Thereafter, the amorphous product is still present.
The fumarate prepared according to Example C3 is stored at room temperature and 75% relative atmospheric humidity, and after 3 days and 1, 2, 3, 4 and 8 weeks samples are analyzed by means of Raman spectroscopy.
The crystalline form B prepared according to Example A1 is stored at room temperature and 75% relative atmospheric humidity, and after 3 days and 1, 2, 3, 4 and 8 weeks samples are analyzed by means of Raman spectroscopy.

[7] = Water uptake by dynamic vapor sorption (Example E6); type: physicochemical; settings: 25° C.; for crystalline form present at the end of the DVS measurement: fumarate; for water uptake: DVS
Protocol: The water uptake is determined by means of dynamic water vapor uptake (dynamic vapor sorption, DVS) with the DVS-1 apparatus from Surface Measurement Systems Ltd. The sample is placed in a platinum crucible on the tip of a microbalance. The sample is then first equilibrated at 50% relative atmospheric humidity and subsequently subjected to a predefined measurement program. The temperature is 25° C. The change in weight of the sample is determined.

[8] = Stability under pressure, pressing of tablets (Example E5); type: physicochemical; settings: 100 MPa in vacuo, 60 minutes
Protocol: The fumarate prepared according to Example C3 is introduced into a tablet press and pressed to a tablet under a pressure of 100 MPa in vacuo for 60 minutes.

[9] = Stability at elevated temperature, HPLC and FT Raman (Example E7); type: physicochemical; settings: for stability at elevated temperature (in words): open and closed vessels
Protocol: The crystalline forms are stored in open and closed vessels and possible changes are measured as stability parameters by chromatography (HPLC) after a given time.

[10] = Stability under grinding conditions (Example E4); type: physicochemical; settings: for crystalline form after trituration: pestle in a mortar dish, 5 minutes; for crystalline form after grinding: agate ball mill, 20 Hz, room temperature, 180 minutes
Protocol: The fumarate prepared according to Example C3 is triturated with a pestle in a mortar dish for 5 minutes.
The fumarate prepared according to Example A1 is introduced into an agate ball mill (Retsch MM200 mixing mill with 5 mm agate balls) and ground at 20 Hz and room temperature for 180 minutes.

[11] = 75% r.h. storage, then drying at 50° C. in vacuo for 7 days
[12] = 95% r.h. storage, then drying at 50° C. in vacuo for 7 days
[13] = after damp storage, 25° C., 75% relative atmospheric humidity, 7 days
[14] = after damp storage, 25° C., 95% relative atmospheric humidity, 7 days
[15] = 75% relative atmospheric humidity, after 8 weeks, fumarate
[16] = 40° C./75% r.h., 1 week, fumarate
[17] = 60° C. (closed), 1 week, fumarate
[18] = 60° C. (closed), 4 weeks, fumarate
[19] = 60° C./75% r.h., 4 weeks, fumarate

CN(C)CC1CCCCC1c1cccc(O)c1.O=C(O)/C=C/C(=O)O (centres unmarked) [3-[2-(dimethylamino)methyl-(cyclohex-1-yl)]-phenol fumarate]
bioavailability [1]: good
hygroscopicity [2]: not hygroscopic
solubility ([3]; particularly in polar and protic solvents, including water): good

CN(C)CC1CCCCC1c1cccc(O)c1.Cl (centres unmarked) [3-[2-(dimethylamino)methyl-(cyclohex-1-yl)]-phenol hydrochloride, reference compound]
hygroscopicity [2]: decidedly hygroscopic

CN(C)C[C@@H]1CCCC[C@H]1c1cccc(O)c1.Cl [Hydrochloride, (+)-(1R,2R)-3-[2-(Dimethylamino)methyl-(cyclohex-1-yl)]-phenol hydrochloride]
water uptake in total ([4]; 90% relative atmospheric humidity): about 5 wt. %
water uptake ([4]; relative atmospheric humidity increased to about 75%): about 2 wt. %
water released on desorption, in total ([4]; stepwise lowering of relative atmospheric humidity by 10%): 8.5%
DW (%) [5, 11]: 6.12%
WC (%) [5, 11]: 6.00%
DW (%) [5, 12]: 6.74%
WC (%) [5, 12]: 6.60%
change in the crystalline form (X-ray diffraction diagrams) [5]: no change
DW (%) [5, 13]: 5.92%
WC (%) [5, 13]: 8.50%
DW (%) [5, 14]: 7.84%
WC (%) [5, 14]: 8.50%
DW (dry weight), starting value [5]: 6.35%
WC (Karl Fischer water content), starting value [5]: 8.00%

CN(C)C[C@@H]1CCCC[C@H]1c1cccc(O)c1.O=C(O)/C=C/C(=O)O [amorphous form, (+)-(1R,2R)-3-[2-(dimethylamino)methyl-(cyclohex-1-yl)]-phenol fumarate]
form after storage ([6]; 22% relative atmospheric humidity and 25° C., after 2 months): still amorphous
crystalline form after storage ([6]; 22% relative atmospheric humidity, 2 months): still present
crystalline form after storage ([6]; 53% relative atmospheric humidity, 2 months): converted completely into the crystalline form B
crystalline form after storage ([6]; 75% relative atmospheric humidity, 5 days): converted completely into the crystalline form B
crystalline form after storage ([6]; 90% relative atmospheric humidity, 3 days): converted completely into the crystalline form B
crystalline form present at the end of the DVS measurement [7]: crystalline form A
water uptake ([7]; up to about 77% relative atmospheric humidity): about 6.5 wt. %

CN(C)C[C@@H]1CCCC[C@H]1c1cccc(O)c1.O=C(O)/C=C/C(=O)O [crystalline form A, (+)-(1R,2R)-3-[2-(dimethylamino)methyl-(cyclohex-1-yl)]-phenol fumarate]
crystalline form after pressing to a tablet [8]: mixture of the crystalline forms A and B
crystalline form after storage (Raman) [6, 15]: crystalline form B is also present
crystalline form after storage (Raman) ([6]; 75% relative atmospheric humidity, after 3 days): converted into the crystalline form B
crystalline form present at the end of the DVS measurement [7]: substantially the crystalline form B
water uptake ([7]; measurement cycle): about 0.2 wt. %
HPLC [9, 16]: 99.5%
FT Raman (determination of the crystalline form) ([9]; 60° C. (closed), 1 week): A and B
HPLC [9, 17]: 99.9%
FT Raman (determination of the crystalline form) ([9]; 60° C. (closed), 4 weeks): A and B
HPLC [9, 18]: 99.6%
HPLC [9, 19]: 99.3%
stability at elevated temperature (in words) ([9]; fumarate): very stable in respect of chemical stability and crystal form
FT Raman (determination of the crystalline form) ([9]; −18° C. (reference), 4 weeks): A and B
HPLC ([9]; −18° C. (reference), 4 weeks): 100%
solubility in polar solvents [3]: very good
crystalline form after trituration ([10]; listed as Example C3, fumarate): mixture of the crystalline form A and B

CN(C)C[C@@H]1CCCC[C@H]1c1cccc(O)c1.O=C(O)/C=C/C(=O)O [crystalline form B, (+)-(1R,2R)-3-[2-(dimethylamino)methyl-(cyclohex-1-yl)]-phenol fumarate]
crystalline form after pressing to a tablet [8]: mixture of the crystalline forms A and B
hygroscopicity [2]: not hygroscopic
release of absorbed moisture on desorption ([4]; at about 10% relative atmospheric humidity): released again completely
water uptake ([4]; stepwise increase of relative atmospheric humidity by 10% to 90%): 0.13%
crystalline form after storage (Raman) [6, 15]: practically unchanged
crystalline form present at the end of the DVS measurement [7]: unchanged
water uptake ([7]; measurement cycle): about 0.2 wt. %
HPLC [9, 16]: 100.0%
HPLC [9, 17]: 99.0%
HPLC [9, 18]: 100.6%
HPLC [9, 19]: 99.1%
stability at elevated temperature (in words) ([9]; fumarate): very stable in respect of chemical stability
HPLC ([9]; −18° C. (reference), 4 weeks): 100%
solubility in polar solvents [3]: very good
WC (%) [5, 11]: 0.30%
WC (%) [5, 12]: 0.30%
change in the crystalline form (X-ray diffraction diagrams) [5]: no change
WC (%) [5, 13]: 0.50%
WC (%) [5, 14]: 0.50%
DW (dry weight), starting value [5]: 0%
WC (Karl Fischer water content), starting value [5]: 0.2%
crystalline form after grinding ([10]; fumarate): mixture of the crystalline forms A and B
crystalline form after grinding ([10]; listed as Example A1, fumarate): mixture of the crystalline form A and B
crystalline form after trituration ([10]; fumarate): unchanged
